Article PMC8916643, “Molecular physiology of pumiliotoxin sequestration in a poison frog” (PLoS ONE, 2022)

Columns and labels:
mice = details: cited from earlier work
[1] = Alkaloid feeding experiment, alkaloid abundance in tissues by LC-MS/MS; type: in vivo, Dendrobates tinctorius
Description: Lab-reared (non-toxic) Dendrobates tinctorius were housed in terraria with live plants, a water pool, and a shelter. Ten adult females were size-matched, randomly assigned to control or experimental groups (N = 5 per group), and then housed individually. To measure the specific effects of PTX 251D compared to a background toxicity, the control group was fed 0.01% DHQ (Sigma-Aldrich, St. Louis, USA) in a solution of 1% EtOH and the experimental group was fed a solution of 0.01% DHQ and 0.01% PTX 251D (PepTech, Burlington, MA, USA) in a solution of 1% EtOH in water. Each frog was fed 15 μL each day for five days by pipetting the solution directly into the mouth between 10am-12pm. On the afternoon of the fifth day, frogs were euthanized by cervical transection and the dorsal skin, liver, intestines, and oocytes were dissected into Trizol (Thermo Fisher Scientific, Waltham, USA).
To isolate alkaloids, 0.3 mL of 100% EtOH was added to 1mL of organic layer from the Trizol RNA extraction, inverted 10 times, and stored at room temperature for 2–3 minutes to precipitate genomic DNA, which was pelleted by centrifugation at 2000g for 5 minutes at 4°C. Then, 300 μL of supernatant was transferred to a new microfuge tube. Proteins were precipitated by adding 900 μL of acetone, mixing by inversion for 10–15 seconds, incubating at room temperature for 10 min, and centrifuging at max speed for 10 min at 4°C. Then, 1 mL of the supernatant containing alkaloids was moved into a glass vial and stored at -20°C until dried down completely under a gentle nitrogen gas flow.
Samples were resuspended in 200 μl of methanol:chloroform 1:1 and 1 μM Nicotine-d3 (used as an internal standard). A 10-point standard curve was prepared in the same solution with DHQ and PTX 251D. A QE+ mass spectrometer coupled to an Ultimate3000 LC (ThermoFisher) was used for analysis. […] The gradient was 0% B for 1 min, then increased to 100% B in 14 min, followed by 5 min at 100% B and 3.5 min at 0% B. Data were quantified using accurate mass, using the standard curve for DHQ and PTX 251D for absolute quantification. aPTX 267A was identified by accurate mass and MS/MS fragmentation similarity to PTX.
R version 3.6.3 was used for all statistical analyses, and all plotting and statistics code is provided in a S1 File. There were instances in the LC-MS/MS data where the molecules of interest (DHQ, PTX 251D, or aPTX 267A) were not detected, and these were converted to zeros prior to statistical analyses and visualization. […] PTX 251D and DHQ were analyzed separately. The abundance of aPTX 267A was approximated using the area-under-the-curve divided by the internal nicotine standard, and as there is no standard for aPTX 267A, exact pmol values could not be calculated. […]

CCCCC(C)C=C1CN2CCCC2C(C)(O)C1O (centres unmarked) [aPTX 267A, allopumiliotoxin (aPTX 267A)]
lethal dose (hyperactivity, convulsions, and death) (mice; injected into mice): 2 mg/kg
lethal dose relative to that of PTX 251D (mice; mice): five times lower
aPTX 267A abundance across tissues ([1]; DHQ+PTX feeding group): greater abundance in the skin than the oocytes
aPTX 267A in the skin after PTX 251D feeding ([1]; DHQ+PTX feeding group vs DHQ-fed group, all individuals, area-under-the-curve divided by internal nicotine standard): higher levels than the DHQ-fed group

C1CCC2NCCCC2C1 (centres unmarked) [DHQ, reference compound]
DHQ abundance across tissue types ([1]; fed orally daily for five days, skin, liver, intestines, oocytes): highest levels occurring in the liver and skin
